According to patent publication EP0417165B1, “POLYPEPTIDE COMPOUNDS HAVING GROWTH HORMONE RELEASING ACTIVITY” (POLYGEN HOLDING CORPORATION, priority 1988, dated 1994):
Non-standard residues stand in square brackets, D forms with d. Residues, ends and D or L forms follow the SMILES beside them.

System: GH Release
Assay: In vivo GH release in pentobarbital anesthetized rats (serum GH by RIA)
Design: species or system Sprague-Pawley rats
Details: sacrificed 10 minutes after injection, mean ± SEM, six rats
Protocol: Immature female Sprague-Pawley rats were obtained from the Charles River Laboratories (Wilmington, MA). After arrival they were housed at 25° C with a 14:10 hr light:dark cycle. Water and Purina rat chow were available ad libitum. Pups were kept with their mothers until 21 days of age.
Normal saline with 0.1% gelatin was the vehicle for intravenous (i.v.) injections of the peptides. The anesthetized rats, weighing 55-65 grams, were injected i.v. with the quantity of growth hormone releasing compounds indicated in Table 3. Injection was made as a 0.1 mL solution into the jugular vein.
All animals were sacrificed by guillotine 10 minutes after the final test injection (see Table 3). Trunk blood for the determination of blood GH levels was collected following decapitation. After allowing the blood to clot, it was centrifuged and the serum was separated from the clot. Serum was kept frozen until the day of sampling for radioimmunoassay (RIA) determination of growth hormone levels according to the following procedure, as developed by the National Institute of Arthritis, Diabetes and Digestive and Kidney Diseases (NIADDK).
Reagents are generally added to the RIA analysis tubes at a single sitting, at refrigerator temperature (about 4°C) in the following sequence: • (a) buffer, • (b) "cold" (i.e., non-radioactive) standard or unknown serum sample to be analyzed, • (c) radio-iodinated growth hormone antigen, and • (d) growth hormone antiserum. Reagent addition is generally carried out so that there is achieved a final RIA tube dilution of about 1:30,000 (antiserum to total liquid volume; vol:vol).
The mixed reagents are then typically incubated at room temperature (about 25°C) for about 24 hours prior to addition of a second antibody (e.g., goat or rabbit anti-monkey gamma globulin serum) which binds to and causes precipitation of the complexed growth hormone antiserum. Precipitated contents of the RIA tubes are then analyzed for the number of counts in a specified period of time in a gamma scintillation counter. A standard curve is prepared by plotting number of radioactive counts versus growth hormone (GH) level. GH levels of unknowns are then determined by reference to the standard curve.
Serum GH was measured by RIA with reagents provided by the National Hormone and Pituitary Program.
Serum levels in Table 3 are recorded in ng/mL in terms of the rat GH standard of 0.61 International Units/mg (IU/mg). Data is recorded as the mean +/-standard error of the mean (SEM). Statistical analysis was performed with Student's t-test. In Table 3 the results shown are the average of studies with six rats.

[1] = Total Dose 0.3 µg i.v., 26 day old female rats, study with Control GH 142±43
[2] = Total Dose 0.3 µg i.v., 26 day old female rats, study with Control GH 208±47
[3] = Total Dose 1.0 µg i.v., 26 day old female rats, study with Control GH 142±43
[4] = Total Dose 1.0 µg i.v., 26 day old female rats, study with Control GH 208±47
[5] = Total Dose 1.0 µg i.v., 29 day old female rats, study with Control GH 108±17
[6] = Total Dose 3.0 µg i.v., 26 day old female rats, study with Control GH 142±43
[7] = Total Dose 3.0 µg i.v., 26 day old female rats, study with Control GH 208±47
[8] = Total Dose 3.0 µg i.v., 29 day old female rats, study with Control GH 108±17

Row | Structure (SMILES) | GH Released by Compound in Column A [1] | GH Released by Compound in Column A [2] | GH Released by Compound in Column A [3] | GH Released by Compound in Column A [4] | GH Released by Compound in Column A [5] | GH Released by Compound in Column A [6] | GH Released by Compound in Column A [7] | GH Released by Compound in Column A [8] | GH Released by Compound in Column A (Total Dose 10.0 µg i.v., 26 day old female rats, study with Control GH 142±43) | GH Released by Compound in Column A (Total Dose 10.0 µg i.v., 29 day old female rats, study with Control GH 108±17) | GH Released by Compound in Column A (Total Dose 30.0 µg i.v., 26 day old female rats, study with Control GH 142±43) | GH Released by Compound in Column A (Total Dose 0.3 µg i.v., 26 day old female rats, study with Control GH 151±16) | GH Released by Compound in Column A (Total Dose 1.0 µg i.v., 26 day old female rats, study with Control GH 151±16) | GH Released by Compound in Column A (Total Dose 3.0 µg i.v., 26 day old female rats, study with Control GH 111±25) | GH Released by Compound in Column A (Total Dose 3.0 µg i.v., 26 day old female rats, study with Control GH 151±16) | GH Released by Compound in Column A (Total Dose 0.3 µg i.v., 29 day old female rats, study with Control GH 108±17)
1 | C[C@H](N)C(=O)N[C@H](Cc1c[nH]c2ccccc12)C(=O)N[C@@H](C)C(=O)N[C@@H](Cc1c[nH]c2ccccc12)C(=O)N[C@H](Cc1ccccc1)C(=O)N[C@@H](CCCCN)C(N)=O [Ala-DTrp-Ala-Trp-DPhe-Lys-NH₂] (H-A[dW]AW[dF]K-NH2) | 303 ± 41 ng/mL | 265 ± 96 ng/mL | 729 ± 115 ng/mL | 754 ± 164 ng/mL | 745 ± 68 ng/mL | 1164 ± 215 ng/mL | 1449 ± 238 ng/mL | 1673 ± 352 ng/mL | 2353 ± 149 ng/mL | 2388 ± 269 ng/mL | 2484 ± 110 ng/mL |  |  |  |  | 
2 | C[C@H](NC(=O)[C@@H](N)Cc1c[nH]cn1)C(=O)N[C@H](Cc1c[nH]c2ccccc12)C(=O)N[C@@H](C)C(=O)N[C@@H](Cc1c[nH]c2ccccc12)C(=O)N[C@H](Cc1ccccc1)C(=O)N[C@@H](CCCCN)C(N)=O [His-Ala-DTrp-Ala-Trp-DPhe-Lys-NH₂] (H-HA[dW]AW[dF]K-NH2) |  |  |  |  |  |  |  |  |  |  |  | 261 ± 32 ng/mL | 830 ± 103 ng/mL | 2588 ± 341 ng/mL | 2365 ± 478 ng/mL | 
3 | C[C@H](NC(=O)[C@@H](Cc1c[nH]c2ccccc12)NC(=O)[C@@H](N)Cc1c[nH]cn1)C(=O)N[C@@H](Cc1c[nH]c2ccccc12)C(=O)N[C@H](Cc1ccccc1)C(=O)N[C@@H](CCCCN)C(N)=O [His-DTrp-Ala-Trp-DPhe-Lys-NH₂] (H-H[dW]AW[dF]K-NH2) | 533 ± 77 ng/mL | 660 ± 128 ng/mL | 1656 ± 213 ng/mL | 1669 ± 257 ng/mL | 2614 ± 349 ng/mL | 2653 ± 378 ng/mL | 3078 ± 629 ng/mL | 3215 ± 547 ng/mL |  |  |  |  |  |  |  | 764 ± 62 ng/mL
